The values that follow come from publication PMC4907692, “Engineering vanilloid-sensitivity into the rat TRPV2 channel” (eLife, 2016).

Values joined by “and” are separate entries in the source; they are usually repeats but may differ in a detail not shown here. Identical values can stand only once.

One experiment concerns the target T1, TRPV1 S512F/T550L (Rattus norvegicus, UniProt O35433, S512F/T550L).
T1 construct: expressed in transfected cells; host or cells: Xenopus oocytes (cRNA injection)
Nature of the experiment: Two-electrode voltage-clamp in Xenopus oocytes, TRPV1 S512F/T550L. The experiment is classed as cell-based. The note with it: 100 nM RTx. The text has this:
To further investigate the putative vanilloid binding pocket in TRPV1, we inspected the cryo-EM structure of TRPV1, looking for residues that are located nearby to the putative RTx density (Figure 1B; regions/residues highlighted in yellow) and that differ between TRPV1 and TRPV2 channels (Figure 3—figure supplement 1; regions highlighted in magenta). […] To quantify the contribution of each of these residues to TRPV1 channel activation by RTx under our experimental conditions, we mutated each to the corresponding residue in TRPV2. We then expressed each construct in oocytes and used the two electrode voltage-clamp technique to study activation by RTx and by the non-specific TRPV channel activator 2-APB. We recorded time courses for channel activation by each agonist while stepping the membrane potential from −60 to +60 mV every 3 s from a holding potential of 0 mV using an external recording solution containing 100 mM KCl (internal K^+ concentration in a healthy oocyte is 100 mM) (Figure 3A, left). We also recorded current-voltage (I-V) relations by stepping over a wider range of voltages in the absence and presence of activators, or in the presence of ruthenium red (RR), a non-specific inhibitor of TRP channels (Figure 3A, right). […]
In general terms: In two-electrode clamp one electrode senses voltage and the other passes current.

Experiment [1] addresses T2, full-length 1D4-tagged TRPV1 (Rattus norvegicus, UniProt O35433).
T2 construct: made in house; host or cells: S. cerevisiae BJ5457, YEpHIS vector, PMA1 promoter; isolated membranes
Kind of experiment: 3H-RTx binding to S. cerevisiae membranes containing 1D4-tagged TRPV1. The note with it: for Hill slope (nH): membranes. The source says:
The polymodal activation of TRPV1 has been widely conceptualized using allosteric models wherein binding of activators (such as vanilloids, protons, DkTx or voltage) are allosterically coupled to opening of the pore ([Brauchi et al., 2004]; [Jara-Oseguera et al., 2016]; [Matta and Ahern, 2007]). The allosteric nature of these interactions has begun to be explored using electrophysiological measurements of channel function ([Jara-Oseguera et al., 2016]; [Yao et al., 2010]), but has thus far not been investigated biochemically. We therefore tested whether binding of DkTx can enhance the affinity of TRPV1 for RTx, which would be predicted by an allosteric model wherein the two activators promote opening by binding more tightly to the open state. For these experiments we used a 1D4-tagged TRPV1 construct where expression in S. cerevisiae was driven by a constitutive promoter and we performed binding assays on yeast membranes where the vanilloid would have free access to the channel protein (see Methods). Under these conditions, we measured a Kd for RTx binding to 1D4-tagged TRPV1 of 0.6 nM under control conditions, about ten fold higher affinity than what we measured in intact cells using GFP-tagged TRPV1. When we measured the concentration-dependence of RTx binding to 1D4-tagged TRPV1 in the presence of DkTx, we observed that the tarantula toxin enhanced the affinity for RTx by about 3-fold (Figure 2A). The effects of DkTx were concentration-dependent (Figure 2B) and were observed independent of whether the binding assay was performed at 37°C (our standard temperature) or at 30°C (Figure 2A).
The full-length TRPV1 and TRPV2 channels with 1D4 affinity tags (TETSQVAPA) on their C-termini were cloned into the YEpHIS vector and expressed in the BJ5457 strain of S. cerevisiae using the strong constitutively active PMA1 promoter, as previously described ([Moiseenkova-Bell et al., 2008]). After 48 hr of expression at 30°C in YPD media, cells were harvested by centrifugation and re-suspended in PBS buffer, supplemented with complete protease inhibitor cocktail (Roche, Indianapolis, IN) and 4-amidinophenylmethanesulfonyl fluoride hydrochloride (APMSF) (Sigma-Aldrich, St. Louis, MO). Cells were broken by passing through an Avestin homogenizer at the pressure of 35 kpsi, cell lysate was cleared by centrifugation at 8,000 g for 15 min and membranes were isolated by ultracentrifugation at 190,000 g for 1 hr. Membrane pellets were re-suspended in PBS buffer supplemented with protease inhibitors and 200 mM sucrose, flash-frozen in liquid nitrogen and stored at -70°C until RTx binding measurements.
S. cerevisiae cells overexpressing TRPV1 constructs to be used in ligand binding assays on intact cells (Figure 1E,F) were grown as for small scale expression trials. 24 hr after protein induction cells were spun down at 4000g, the supernatant was removed and the pellet resuspended in 1x PBS, normalizing OD600 to 75 for each sample, and aliquoted for storage at -80°C. ^3H-RTx binding assays on cells were performed at 37°C as previously described ([Feng et al., 2015]), but where non-specific binding of RTx was measured using cells expressing GFP alone. The binding of RTx to TRPV1 and TRPV2 in membranes (e.g. Figure 2A,B and 5C) was performed at 37°C unless otherwise stated using membranes prepared from large scale protein preparations of S. cerevisiae containing rat TRPV1 and TRPV2 with a 1D4 tag expressed using a constitutive promoter as in [Moiseenkova-Bell et al., 2008]. Data for binding of RTx to membranes was corrected for non-specific binding, determined using either excess non-radioactive ligand or heat inactivation of the protein, as previously described ([Feng et al., 2015]). The TRPV1-activating double-knot toxin (DkTx) was produced recombinantly, folded in vitro and purified as previously described ([Bae et al., 2012]). Yeast membranes were incubated with DkTx solution for 1 hr at 4°C with gentle agitation prior to undertaking RTx binding assays. […]

T2 sequence (O35433 whole entry): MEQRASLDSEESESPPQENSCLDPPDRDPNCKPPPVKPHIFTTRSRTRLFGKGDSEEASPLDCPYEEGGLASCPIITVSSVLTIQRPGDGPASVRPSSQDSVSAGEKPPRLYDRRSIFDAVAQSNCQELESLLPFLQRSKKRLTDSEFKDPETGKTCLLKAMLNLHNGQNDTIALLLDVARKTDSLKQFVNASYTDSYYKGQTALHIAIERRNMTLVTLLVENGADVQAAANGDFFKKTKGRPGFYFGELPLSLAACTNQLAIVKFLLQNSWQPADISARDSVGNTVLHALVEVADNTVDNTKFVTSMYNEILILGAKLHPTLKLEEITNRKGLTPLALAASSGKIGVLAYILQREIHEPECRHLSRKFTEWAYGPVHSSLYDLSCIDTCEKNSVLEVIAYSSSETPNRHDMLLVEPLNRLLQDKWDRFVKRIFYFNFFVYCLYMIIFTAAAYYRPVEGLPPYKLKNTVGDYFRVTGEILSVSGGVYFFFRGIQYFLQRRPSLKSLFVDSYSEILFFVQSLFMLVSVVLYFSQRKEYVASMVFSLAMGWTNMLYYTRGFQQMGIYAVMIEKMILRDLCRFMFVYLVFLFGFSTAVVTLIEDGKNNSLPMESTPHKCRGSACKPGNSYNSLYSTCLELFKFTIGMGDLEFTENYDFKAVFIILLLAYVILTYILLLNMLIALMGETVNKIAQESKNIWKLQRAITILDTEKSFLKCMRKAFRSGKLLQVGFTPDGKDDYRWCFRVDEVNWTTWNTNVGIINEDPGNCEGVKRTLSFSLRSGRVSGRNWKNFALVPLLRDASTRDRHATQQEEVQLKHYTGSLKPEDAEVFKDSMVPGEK
T1 sequence (O35433 whole entry S512F/T550L): as the sequence (O35433 whole entry) above, with S512F, T550L counted along it

Take `C=C(C)[C@]12C[C@@H](C)[C@@]34O[C@](Cc5ccccc5)(O[C@@H]1[C@@H]3C=C(COC(=O)Cc1ccc(O)c(OC)c1)C[C@]1(O)C(=O)C(C)=C[C@@H]41)O2` [RTx, resiniferatoxin]: the “channel activation by RTx” value on TRPV1 S512F/T550L was “lost sensitivity”. Further, the Kd in experiment [1] (Kd of 3H-RTx binding (Hill fit)) is 0.53 nM and 0.8 nM. Besides, the “Hill slope (nH)” value came out at 1.1 in experiment [1] (control (no DkTx), 30°C); 1.24 in experiment [1] (control (no DkTx), 37°C); 1 in experiment [1] (in the presence of DkTx (0.7 µM), 30°C); 0.92 in experiment [1] (in the presence of DkTx (0.7 µM), 37°C).

Broadly, the Kd is the constant that tells how readily two partners part at equilibrium. A low value points to higher affinity.
